Each molecule was assayed against T1, human H4 receptor (Homo sapiens, UniProt Q9H3N8) (assay: Radioligand displacement studies at the human H4 receptor ([3H]histamine)). Conditions: [3H]histamine displacement, membranes of HEK 293T cells transfected with human H4R, 1 hour at 22° C.
T1 construct: expressed in transfected cells; host or cells: HEK 293T cells, transient transfection with polyethyleneimine
Format: binding
Procedure: Radioligand displacement studies at the human H4 receptor were conducted. […] Approximately 4 million cells were seeded in a 10-cm dish and cultured overnight before transfection. For transfection of each dish of cells, the transfection mixture was prepared in 1 ml serum-free DMEM and contained 5 μg of human H4R receptor plasmid and 15 μl of 1 mg/ml 25 kDa linear polyethyleneimine (Polyscience, Inc., USA). The mixture was incubated for 10-15 minutes at room temperature before it was added into the monoloyer cell culture loaded with 5 ml fresh cell culture medium. Two days after transfection the cells were washed with PBS containing 1 mM EDTA, collected as pellet by centrifuging, and stored at −20° C. until use.
For the radioligand binding study, pellets of transfected cells were homogenized in H4R binding buffer (100 mM Tris-HCl, pH 7.4). For displacement binding assays, the membranes were typically incubated with 10^−4 to 10^−11 M of ligands (stock concentration was 10 mM 1 DMSO) in the presence of [^3H]histamine (Perkin-Elmer Life Science, Inc., USA) in a total volume of 200 μl. The reaction mixtures were incubated for 1 hour at room temperature (22° C.), and harvested on 96-well glass fiber C plates that were pretreated with 0.3% 750 kDa PEI. The binding assay data were analyzed using Prism 4.0 (Graphpad Software Inc., USA).

Ki | Compound
< 1000 nM | CCOC(=O)CNc1nc(N2CCN(C)CC2)nc2ccc(Cl)cc12 [VUF10456, Ethyl 2-(6-chloro-2-(4-methylpiperazin-1-yl)quinazolin-4-ylamino)acetate]
< 1000 nM | COc1ccc(CNc2nc(N3CCN(C)CC3)nc3ccc(Cl)cc23)cc1 [VUF10505, 6-Chloro-N-(4-methoxybenzyl)-2-(4-methylpiperazin-1-yl)quinazolin-4-amine]
< 1000 nM | CN1CCN(c2nc(NCCc3ccc([N+](=O)[O-])cc3)c3cc(Cl)ccc3n2)CC1 [VUF10506, 6-Chloro-2-(4-methylpiperazin-1-yl)-N-(4-nitrophenethyl)quinazolin-4-amine]
< 1000 nM | CN1CCN(c2nc(NCc3ccc(N)cc3)c3cc(Cl)ccc3n2)CC1 [VUF10509, N-(4-aminobenzyl)-6-chloro-2-(4-methylpiperazin-1-yl)quinazolin-4-amine]
< 1000 nM | CN1CCN(c2nc(NCc3ccc(F)cc3)c3cc(Cl)ccc3n2)CC1 [VUF10513, 6-Chloro-N-(4-fluorobenzyl)-2-(4-methylpiperazin-1-yl)quinazolin-4-amine]
< 1000 nM | CN1CCN(c2nc(NCc3ccc(C#N)cc3)c3cc(Cl)ccc3n2)CC1 [VUF10553, 4-((6-Chloro-2-(4-methylpiperazin-1-yl)quinazolin-4-ylamino)methyl)benzonitrile]

Compound | Ki
CN1CCN(c2ccc3cc(Cl)ccc3n2)CC1 [VUF6959, 6-Chloro-2-(4-methyl-piperazinyl)-quinoline] | < 1000 nM

Reference: patent US20100016293A1, “Quinazolines and Related Heterocyclic Compounds, and Their Therapeutic Use” (priority 2006, published 2010)
